Calls of active or inactive are those of the source. Residues, ends and D or L forms follow the SMILES beside them. *: point of attachment. Cbz = O=C(OCc1ccccc1)*
Columns and labels:
Caspase-7 (Homo sapiens) = molecular target: T1, Caspase-7 (Homo sapiens) (UniProt P55210); test: Inhibition of human recombinant caspase7 upto 50 uM
T1 sequence (whole entry): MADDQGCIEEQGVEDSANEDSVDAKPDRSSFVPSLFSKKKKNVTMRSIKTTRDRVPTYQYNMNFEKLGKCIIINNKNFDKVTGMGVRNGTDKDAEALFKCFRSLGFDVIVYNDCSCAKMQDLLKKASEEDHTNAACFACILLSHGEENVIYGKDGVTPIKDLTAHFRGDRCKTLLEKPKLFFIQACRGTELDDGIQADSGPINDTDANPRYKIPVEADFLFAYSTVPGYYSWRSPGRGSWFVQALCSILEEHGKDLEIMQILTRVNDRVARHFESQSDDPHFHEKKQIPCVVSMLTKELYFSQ

Caspase-2 (Homo sapiens) = molecular target: T2, Caspase-2 (Homo sapiens) (UniProt P42575); test: Inhibition of human recombinant caspase2 upto 50 uM
T2 sequence (whole entry): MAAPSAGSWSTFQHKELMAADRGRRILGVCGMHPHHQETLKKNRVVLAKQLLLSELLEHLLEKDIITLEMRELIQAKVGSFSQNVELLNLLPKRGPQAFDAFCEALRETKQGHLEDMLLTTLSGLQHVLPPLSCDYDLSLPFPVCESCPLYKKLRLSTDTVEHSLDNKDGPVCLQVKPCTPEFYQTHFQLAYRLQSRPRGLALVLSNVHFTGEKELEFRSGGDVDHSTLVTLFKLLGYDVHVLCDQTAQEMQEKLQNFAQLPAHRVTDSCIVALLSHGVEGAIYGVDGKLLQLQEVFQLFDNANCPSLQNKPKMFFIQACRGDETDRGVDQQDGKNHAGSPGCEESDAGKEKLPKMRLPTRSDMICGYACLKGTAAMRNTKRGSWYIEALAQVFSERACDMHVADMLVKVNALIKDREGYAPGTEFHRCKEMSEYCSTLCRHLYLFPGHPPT

Caspase-5 (Homo sapiens) = molecular target: T3, Caspase-5 (Homo sapiens) (UniProt P51878); test: Inhibition of human recombinant caspase5 upto 50 uM
T3 sequence (whole entry): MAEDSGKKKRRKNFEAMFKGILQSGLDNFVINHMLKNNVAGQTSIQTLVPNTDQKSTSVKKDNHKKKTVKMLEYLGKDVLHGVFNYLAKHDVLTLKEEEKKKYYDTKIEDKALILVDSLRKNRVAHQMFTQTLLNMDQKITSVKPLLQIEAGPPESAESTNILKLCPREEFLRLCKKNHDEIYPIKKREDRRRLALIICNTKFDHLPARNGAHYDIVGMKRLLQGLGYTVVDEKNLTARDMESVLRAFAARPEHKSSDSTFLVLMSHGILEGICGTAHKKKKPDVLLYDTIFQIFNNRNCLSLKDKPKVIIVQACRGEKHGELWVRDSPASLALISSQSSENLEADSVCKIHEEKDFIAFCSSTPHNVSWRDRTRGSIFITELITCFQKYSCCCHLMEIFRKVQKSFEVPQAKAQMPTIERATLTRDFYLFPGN

Measured: Activity

O=C(CN1C(=O)[C@@H](COC(=O)Nc2ccc(F)cc2)N=C(c2ccccc2)c2ccccc21)N[C@H]1CC(=O)OC1O (stereo partly drawn)
inactive: all assays above

O=C(CN1C(=O)[C@@H](COC(=O)Nc2ccc(F)cc2F)N=C(c2ccccc2)c2ccccc21)N[C@H]1CC(=O)OC1O (stereo partly drawn)
inactive: all assays above

O=C(CN1C(=O)[C@@H](COC(=O)Nc2ccccc2)N=C(c2ccccc2)c2ccccc21)N[C@H]1CC(=O)OC1O (stereo partly drawn)
inactive: all assays above

CC(C)[C@H](NC(=O)OCc1ccccc1)C(=O)N[C@H](C=O)Cc1ccccc1 (Cbz-Val-Phe-aldehyde)
inactive: all assays above

COc1ccc(NC(=O)OC[C@H]2N=C(c3ccccc3)c3ccccc3N(CC(=O)N[C@H]3CC(=O)OC3O)C2=O)cc1 (stereo partly drawn)
inactive: all assays above

O=C(CN1C(=O)[C@H](COC(=O)Nc2ccc(Cl)cc2C(F)(F)F)N=C(c2ccccc2)c2ccccc21)N[C@H]1CC(=O)OC1O (stereo partly drawn)
inactive: all assays above

O=C(CN1C(=O)[C@@H](COC(=O)Nc2ccc(Cl)cc2)N=C(c2ccccc2)c2ccccc21)N[C@H]1CC(=O)OC1O (stereo partly drawn)
inactive: all assays above

O=C(CN1C(=O)[C@@H](COC(=O)Nc2c(F)cc(F)cc2Br)N=C(c2ccccc2)c2ccccc21)N[C@H]1CC(=O)OC1O (stereo partly drawn)
inactive: all assays above

O=C(CN1C(=O)[C@@H](COC(=O)Nc2ccc(Cl)cc2C(F)(F)F)N=C(c2ccccc2)c2ccccc21)N[C@H]1CC(=O)OC1O (stereo partly drawn)
inactive: all assays above

O=C(CN1C(=O)[C@@H](COC(=O)Nc2cccc3ccccc23)N=C(c2ccccc2)c2ccccc21)N[C@H]1CC(=O)OC1O (stereo partly drawn)
inactive: all assays above

Cc1cc(Cl)ccc1NC(=O)OC[C@H]1N=C(c2ccccc2)c2ccccc2N(CC(=O)N[C@H]2CC(=O)OC2O)C1=O (stereo partly drawn)
inactive: all assays above
